Measurements from patent US20250160330A1, “METHOD FOR CONTROLLING HARMFUL ARTHROPODS OR HARMFUL NEMATODES USING ZOANTHAMINE ANALOG” (SUMITOMO CHEMICAL COMPANY, LIMITED, priority 2022, published 2025).
Where two headings read alike, the source gives them in different places.

Experiments:
[1] = tested on: northern house mosquitos (Culex pipiens pipiens); assay: Test method 8: coated container contact test, northern house mosquito female adults; type: in vivo; settings: 24 h, read-out: mortality of insects
Method: The test compounds are dissolved with acetone containing a surfactant, and the solution was then poured into a container of 20 mL contents, and the solution was coating uniformly in the inner face of the container such that the test compound is made 10 mg/m^2, and the surfactant is made 40 mg/m^2, and the container is dried.
Five (5) of female adult of northern house mosquitos (Culex pipiens pipiens) are placed in the contained, and the contained is put the lid. After the passing of the prescribed times, the state of the northern house mosquitos are examined, and the mortality is calculated by the following equation.

[2] = tested on: cotton worm (Spodoptera litura); assay: Test method 1: foliar spray on cabbage seedling, cotton worm larvae; type: in vivo; settings: 144 h, read-out: mortality of insects
Method: The test compounds are made to a formulation according to a similar method to that described in the Formulation Example 5, and thereto is added water containing 0.03 v/v % of Shindain (registered trademark) to prepare a diluted solution containing a prescribed concentration of the test compound.
(§1) Cabbage (Brassicae oleracea) seedling (on the developmental stage of the third to fourth true leaf) is planted in a cup, and the diluted solutions are sprayed into the seedling at a ratio of 20 mL/seedling. Thereafter, ten (10) cotton worm (Spodoptera litura) at the third instar larval stage are released. After 6 days, the number of the surviving insects is counted, and the mortality of insects is calculated by the following equation.

[3] = tested on: western flower thrips (Frankliniella occidentalis); assay: Test method 5: sprayed cucumber leaf, western flower thrips larvae; type: in vivo; settings: 144 h, read-out: mortality of insects
Method: (§2) Test compounds are made to a formulation according to a similar method to that described in the Formulation Example 5, and thereto is added water containing 0.03 v/v % of Shindain (registered trademark) to prepare a diluted solution containing a prescribed concentration of the test compound.
Cucumber (Cucumber sativus) seedling (on the developmental stage of the second true leaf) is planted in a cup, and the diluted solutions are sprayed into the seedling at a ratio of 10 mL/seedling. Thereafter, the second true leaf is cut, and the cut leaf was placed in the cup, and approximately twenty (20) of larvae of western flower thrips (Frankliniella occidentalis) larvae are released onto the leaf. After 6 days, the number of the surviving insects is examined and the mortality of insects is calculated by the following equation.

[4] = tested on: brown planthoppers (Nilaparvata lugens); assay: Test method 4: foliar spray on rice seedling, brown planthopper larvae; type: in vivo; settings: 144 h, read-out: mortality of insects
Method: as §2
Rice (Oryza sativa) seedling (on the developmental stage of the second true leaf) is planted in a cup, and the diluted solutions are sprayed into the seedling at a ratio of 10 mL/seedling. Thereafter, twenty (20) of 3rd instar larvae of brown planthoppers (Nilaparvata lugens) are released onto the rice leaves. After 6 days, the number of the surviving insects is examined and the mortality of insects is calculated by the following equation.

[5] = tested on: cotton aphids (Aphis gossypii); assay: Test method 3: foliar spray on cucumber seedling infested with cotton aphids; settings: read-out: mortality of insects
[6] = tested on: cotton worm (Spodoptera litura); assay: Test method 2: foliar spray on cabbage seedling, cotton worm larvae; type: in vivo; settings: 144 h, read-out: mortality of insects
Method: as §2, §1

[7] = tested on: silverleaf whiteflies (Bemisia tabaci); assay: Test method 6: foliar spray on tomato seedling with silverleaf whitefly larvae; settings: in Solanum lycopersicum, 168 h, read-out: mortality of insects
[8] = 10 mg/m^2 coated on inner face of container, female adults, after one (1) day, 25° C.
[9] = 200 ppm, spray 20 mL/seedling on cabbage, third instar larvae, after 6 days, 25° C.
[10] = 200 ppm, spray 10 mL/seedling on cucumber, cut second true leaf, larvae, after 6 days, 25° C.
[11] = 200 ppm, spray 10 mL/seedling on rice, 3rd instar larvae, after 6 days, 25° C.
[12] = 200 ppm, spray 20 mL/seedling on cabbage, third instar larvae, after 6 days, 25° C. (test method 2)

SMILES | mortality at 10 mg/m2 [1, 8] [%] | mortality at 200 ppm [2, 9] [%] | mortality at 200 ppm [3, 10] [%] | mortality at 200 ppm [4, 11] [%] | mortality at 200 ppm [5] [%] | mortality at 200 ppm [6, 12] [%] | mortality at 10 mg/m2 [1] [%] | mortality at 200 ppm [2] [%] | mortality at 200 ppm [3] [%] | mortality at 200 ppm [4] [%] | mortality at 200 ppm [7] [%] | mortality at 200 ppm [6] [%]
CC1=CC(=O)[C@@H]2[C@@H](C1)[C@]1(C)C[C@H]3N4C[C@H]5C[C@H](C)C[C@]4(CC[C@@]3(C)[C@@](C)(CC(=O)O)[C@H]1C(=O)[C@@H]2C)O5 [EE-3] | ≥ 80 | ≥ 80 | ≥ 90 | ≥ 90 | ≥ 90 |  |  |  |  |  |  | 
CC(=O)Oc1cc(C)cc2c1CC(=O)[C@H]1[C@@]2(C)C[C@@]23OC(=O)C[C@]1(C)[C@]2(C)CC[C@]12C[C@@H](C)C[C@H](CN13)O2 [BB-1] | ≥ 80 | ≥ 80 | ≥ 90 |  | ≥ 90 | ≥ 80 |  |  |  |  |  | 
CC1CC(O)C2CC(=O)[C@H]3[C@@](C)(CC4N5C[C@H]6C[C@H](C)C[C@]5(CC[C@@]4(C)[C@@]3(C)CC(=O)O)O6)C2C1 (stereo partly drawn) [EE-6] | ≥ 80 |  | ≥ 90 |  |  | ≥ 80 |  |  |  |  |  | 
CC1=CC(=O)[C@@H]2[C@@H](C1)[C@]1(C)CC3N4C[C@H](O)C[C@H](C)C[C@@H]4CC[C@@]3(C)[C@@](C)(CC(=O)O)[C@H]1C(=O)[C@@H]2C (stereo partly drawn) [GG-3] |  |  |  |  | ≥ 90 |  | ≥ 80 | ≥ 80 | ≥ 90 | ≥ 90 |  | 
CC1CC(=O)C2CC(=O)[C@H]3[C@@](C)(CC4=[N+]5C[C@H]6C[C@H](C)C[C@]5(CC[C@@]4(C)[C@@]3(C)CC(=O)O)O6)C2C1 (stereo partly drawn) [EE-2] |  |  |  |  | ≥ 90 |  | ≥ 80 | ≥ 80 | ≥ 90 | ≥ 90 | ≥ 90 | ≥ 80
CC[C@H]1C(=O)[C@H]2[C@@](C)(C[C@@]34OC(=O)C[C@]2(C)[C@]3(C)CC[C@]23C[C@@H](C)C[C@H](CN24)O3)[C@@H]2CC(C)=CC(=O)[C@H]21 [AA-3] |  |  |  |  | ≥ 90 |  | ≥ 80 | ≥ 80 |  | ≥ 90 | ≥ 90 | ≥ 80
COC(=O)C[C@@]1(C)[C@H]2C(=O)C[C@@H]3C(=O)C=C(C)C[C@H]3[C@]2(C)C=C2N3C[C@H]4C[C@H](C)C[C@]3(CC[C@]21C)O4 [E-1] |  |  |  |  | ≥ 90 |  | ≥ 80 |  | ≥ 90 | ≥ 90 | ≥ 90 | ≥ 80
CC1CC(=O)[C@@H]2[C@@H](C1)[C@]1(C)C[C@@]34OC(=O)C[C@@](C)([C@H]1C(=O)[C@@H]2C)[C@]3(C)CC[C@]12C[C@@H](C)C[C@H](CN14)O2 (stereo partly drawn) [A-19] |  |  |  |  | ≥ 90 |  | ≥ 80 | ≥ 80 | ≥ 90 | ≥ 90 |  | ≥ 80
COC(=O)C[C@@]1(C)[C@H]2C(=O)CC3C(=O)CC(C)CC3[C@]2(C)C=C2N3C[C@H]4C[C@H](C)C[C@]3(CC[C@]21C)O4 (stereo partly drawn) [EE-1] | ≥ 80 |  | ≥ 90 |  | ≥ 90 |  |  |  |  |  | ≥ 90 | 
COC(=O)C[C@@]1(C)[C@H]2C(=O)C[C@@H]3C(=O)CC(C)C[C@H]3[C@]2(C)CC2N3C[C@H](O)C[C@H](C)CC3CC[C@]21C (stereo partly drawn) [GG-2] |  |  |  |  |  |  | ≥ 80 |  |  |  |  | 
CC1=CC(=O)[C@@H]2[C@@H](C1)[C@]1(C)C[C@@]34OC(=O)C[C@@](C)([C@H]1C(=O)[C@@H]2CO)[C@]3(C)CCC12C[C@@H](C)C[C@H](CN14)O2 [A-1] |  |  |  |  | ≥ 90 |  |  | ≥ 80 |  | ≥ 90 | ≥ 90 | ≥ 80
COC(=O)C[C@@]1(C)[C@H]2C(=O)[C@H](C)[C@@H]3C(=O)C=C(C)C[C@H]3[C@]2(C)C[C@H]2N3C[C@H]4C[C@H](C)C[C@]3(CC[C@]21C)O4 [EE-5] |  |  |  |  | ≥ 90 |  | ≥ 80 | ≥ 80 | ≥ 90 | ≥ 90 |  | ≥ 80
CC1CC(O)[C@H]2CC(=O)[C@H]3[C@@](C)(CC4N5C[C@H](O)C[C@H](C)CC5CC[C@@]4(C)[C@@]3(C)CC(=O)O)[C@@H]2C1 (stereo partly drawn) [GG-1] |  |  |  |  |  |  | ≥ 80 |  |  | ≥ 90 |  | 
Cc1cc(O)c2c(c1)[C@]1(C)C[C@@]34OC(=O)C[C@@](C)([C@H]1C(=O)C2)[C@]3(C)CC[C@]12C[C@@H](C)C[C@H](CN14)O2 [B-2] |  |  |  |  | ≥ 90 |  | ≥ 80 | ≥ 80 |  | ≥ 90 |  | ≥ 80
C[C@@H]1CC(=O)[C@H]2CC(=O)[C@H]3[C@@](C)(C[C@@]45OC(=O)C[C@]3(C)[C@]4(C)CC[C@]34C[C@@H](C)C[C@H](CN35)O4)[C@@H]2C1 [A-18] |  |  |  |  | ≥ 90 |  |  | ≥ 80 | ≥ 90 | ≥ 90 |  | ≥ 80
Cc1cc(O)c2c(c1)[C@]1(C)C[C@@]34OC(=O)C[C@@](C)([C@H]1C(=O)[C@@H]2C)[C@]3(C)CC[C@@]12C[C@@H](C)C[C@H](CN14)O2 [B-1] |  |  |  |  | ≥ 90 |  | ≥ 80 | ≥ 80 | ≥ 90 |  |  | ≥ 80
COC(=O)C[C@@]1(C)[C@H]2C(=O)[C@H](C)[C@@H]3C(=O)C=C(C)C[C@H]3[C@]2(C)C=C2N3C[C@H]4C[C@H](C)C[C@]3(CC[C@]21C)O4 [EE-4] | ≥ 80 |  | ≥ 90 | ≥ 90 |  | ≥ 80 |  |  |  |  |  | 
CC1=CC(=O)[C@@H]2[C@@H](C1)[C@@]1(C)[C@H](C(=O)[C@@H]2C)[C@]2(C)CC(=O)O[C@@]3([C@H]1Cl)N1C[C@H]4C[C@H](C)C[C@]1(CC[C@@]23C)O4 [AA-2] |  |  |  |  | ≥ 90 |  | ≥ 80 | ≥ 80 | ≥ 90 | ≥ 90 | ≥ 90 | ≥ 80
